Measurements reported in patent publication US8129532B2, “Amino(oligo)thiophene dyes, preparation thereof, and optical methods of use” (The University of Connecticut, priority 2007, dated 2012).

System: NIE-115 mouse neuroblastoma
Assay: SHG and 2PF voltage sensitivity, 50 mV step, slow switching protocol on patch-clamped neuroblastoma cell
Type: cell-based
Settings: comparator named in the sentence (PY-1266; PY-1268)
Source text: For full details of our non-linear imaging microscope, we refer the reader to previously published descriptions. A. C. Millard, P. J. Campagnola, W. Mohler, A. Lewis, and L. M. Loew, “Second Harmonic Imaging Microscopy,” Meth. Enzymol. 361, 47-69 (2003); Millard, A. C., L. Jin, and L. M. Loew, “Second Harmonic Generation Imaging Microscopy with a High Power Ultrafast Fiber Laser,”Commercial and Biomedical Applications of Ultrafast Lasers. 5714-5716, 92-98 (2005); A. C. Millard, L. Jin, M.-D. Wei, J. P. Wuskell, A. Lewis, and L. M. Loew, “Sensitivity of Second Harmonic Generation from Styryl Dyes to Transmembrane Potential,” Biophys. J. 86, 1169-1176 (2004). Our current microscope combines a Fluoview (Olympus) scan-head and an Axiovert (Zeiss) inverted microscope constructed for multiple imaging methodologies including wide-field, one-photon excitation fluorescence imaging, as well as SHG and 2PF imaging. Our laser sources include a Mira (Coherent) Ti:sapphire laser and a Femtopower (Fianium) fiber laser operating at 1064 nm. […] Fluorescence is imaged (for linear imaging) or collected (for non-linear imaging) back through the excitation objective, while SHG is collected in the forward, transmitted light direction by a condenser, either 0.8 NA or 0.55 NA (Zeiss). […]

CCN(CC)c1ccc(-c2ccc(/C=C/c3cc[n+](CCC[N+](CC)(CC)CC)cc3)s2)s1 [PY-1261, Di-2-BTEPPTEA]
SHG signal sensitivity relative to another dye: more than five times larger
